# According to US7098350B2, “E2,E4,Z8-undecatrienoic acid and ester and carboxamide derivatives thereof, organoleptic uses thereof and processes for preparing same” (International Flavors & Fragrances Inc., priority 2003, dated 2006):
# Experiments:
# [1] = Organoleptic and somatosensory properties (Table I); details: at 10 ppm
# Text: Specific members of the 2,4,8-undecatrienoic acid derivative genus of our invention have organoleptic and somatosensory properties as set forth in the following Table I: […]
# [2] = Taste evaluation in cola-flavored hard candy; details: 50 ppm compound in cola-flavored hard candy; control without compound
# Method: (§1) The following formulation was prepared: […]
# The above formulation was added to a stainless steel pot. With constant mixing, the formulation temperature was raised to 295° F. The pot was then removed from the heat, and 1.0 grams of a cola flavor containing the ingredients in equal amounts: cinnamic aldehyde, ginger oil, lemon oil, lime oil and nutmeg oil was added and blended with the sucrose-corn syrup-water formulation. After the blending was complete, 1.2 grams of citric acid was added. The resulting liquid candy was then deposited into molds, and the molds containing the liquid candy were cooled to room temperature, yielding 200 grams of finished hard candy. […] A second candy sample was prepared using the above recipe modified by the addition of 50 ppm of N-isobutyl E2, E4, Z8-undecatrienamide prepared according the procedure of Example 1 (B).
# [3] = Taste evaluation in kiwi-flavored 30° proof alcoholic beverage; details: 3 ppm compound plus 200 ppm kiwi flavor blend in 30° proof alcoholic base; control has flavor blend only
# Method: as §1
# Flavored beverages were prepared using the above 30° proof alcoholic base. A kiwi flavor was applied to the beverages. This flavor consisted of cis-3 hexenol, trans-2 hexenal, ethyl butyrate, ethyl-2-methyl butyrate, isoamyl butyrate, ethyl acetate, ethyl isovalerate, and trans-2-hexenol in equal proportions. The control beverage contained 200 ppm of the above flavor blend. […] Another beverage was prepared containing 200 ppm of the same flavor and 3 ppm of N-isobutyl E2,E4,Z8-undecatrienamide prepared according to Example 1(B).
smiles,measurement,setting,value
"CC/C=C\CC/C=C/C=C/C(=O)NCC(C)C [N-isobutyl E2,E4,Z8-undecatrienamide]",Primary Flavor or Sensory Characteristic (sensation),[1],Strong tingle at 10 ppm.
same,Flavor and taste effect of hard candy versus control,[2],"moderately strong and substantive cola profile, as well as a taste effect similar to carbonation"
same,Flavor of beverage versus control,[3],slightly more melon rind in character than the control
same,Perception / somatosensory effect of beverage versus control,[3],enhanced perception of alcohol and a tingle effect on the tongue
